Experimental data taken from paper PMC12557367, ““Precision on Two Wheels”–Structural Refinement of ^64Cu- and ^68Ga-Labeled Bicyclic Peptides Targeting Nectin‑4 for Improved Tumor Imaging: From Preclinical Development to First-in-Human Application” (Journal of Medicinal Chemistry, 2025).
Where two headings read alike, the source gives them in different places. Numbered stars: 1 amine (or outer) side, 2 acyl side, 3 side chain; on linkers, the order of the positions; unused ones are H or OH. Bridge positions count the residues as written; N and C are the ends. Square brackets hold non-standard residues; d marks the D form. Peptide text beside a SMILES is read from it. * marks the point of attachment. TATA = O=C(CC[*:1])N1CN(C(=O)CC[*:2])CN(C(=O)CC[*:3])C1; X1 = O=C(O)CN1CCN(CC(=O)O)CCN([C@H](CCC(=O)*)C(=O)O)CC1; 1Nal = N[C@@H](Cc1cccc2ccccc12)C(=O)O; Hyp = O=C(O)[C@@H]1C[C@@H](O)CN1; hArg = N=C(N)NCCCC[C@H](N)C(=O)O; hSer = N[C@@H](CCO)C(=O)O; Nle = CCCC[C@H](N)C(=O)O

Columns and labels:
[1] = target: T1, recombinant human nectin-4 (Homo sapiens, UniProt Q96NY8); assay: FA-based competitive binding assay with probe 1a; conditions: for Hill coefficient n: competitive binding curve, variable slope; for fold lower binding affinity compared to 1e: FA K d ratio
T1 construct: close to the value determined for the complete extracellular domain of nectin-4 (0.94 nM); purchased R&D Systems 2659-N4
T1 sequence (Q96NY8 32-349 limits assumed): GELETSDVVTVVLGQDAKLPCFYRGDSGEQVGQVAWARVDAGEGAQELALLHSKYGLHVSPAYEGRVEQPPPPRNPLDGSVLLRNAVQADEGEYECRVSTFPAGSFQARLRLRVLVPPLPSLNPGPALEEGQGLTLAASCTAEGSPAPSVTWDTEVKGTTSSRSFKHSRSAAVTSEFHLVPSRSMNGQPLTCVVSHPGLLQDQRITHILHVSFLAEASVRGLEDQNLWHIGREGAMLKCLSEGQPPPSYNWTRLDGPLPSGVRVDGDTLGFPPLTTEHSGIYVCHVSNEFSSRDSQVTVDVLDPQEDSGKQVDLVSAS
Procedure: For the competitive binding assay, a constant concentration of probe 1a (1 nM) and of nectin-4 (20 nM) was used, and the concentration of the competitors was varied over at least 3 orders of magnitude. […] Analysis of the curves by nonlinear regression according to dose–response inhibition with variable slope, as implemented in GraphPad Prism (see Experimental section), provided the IC50 value for displacing the probe from nectin-4.
All measurements were conducted at 37 °C over 1200 s (interval of 37 s) using a Cytation 5 multimode microplate reader (BioTek Instruments, Software Gen 5) and black 96-well microplates (BRANDplates with F-bottom wells). Experiments were conducted at an excitation wavelength of 540 nm and an emission wavelength of 620 nm. The FA (r) was calculated by Gen 5 software from the measured parallel and perpendicular fluorescence intensities (I ∥ and I ⊥, respectively) according to eq using a G factor of 0.87 (preset value). r=I∥−G×I⊥/I∥+2G×I⊥ 1
All further data analyses were conducted with GraphPad Prism (version 10.4.1, GraphPad Software, San Diego, CA, USA). The assay mixture (100 μL) contained an aqueous solution (99 μL) and DMSO (1%, v/v, 1 μL).
For the competitive binding assay, fixed concentrations of probe 1a (1 nM) and recombinant human nectin-4 (20 nM) and 10 concentrations of nonlabeled peptide (e.g., […] prepared as serial 1:1 dilution) were used (two separate experiments, each performed in duplicate). The corresponding stock solutions of 1a (2.5 nM) and nectin-4 (50 nM) were prepared in HEPES buffer, while the stock solutions of the nonlabeled peptides were prepared in 5% DMSO/HEPES buffer. nectin-4 (40 μL) and 1a (40 μL) were added to the wells, and the competition was started by the addition of the nonlabeled peptides (20 μL). The FA values were averaged over the time period of 1200 s, and plots of FA = f([peptide]) were analyzed by nonlinear regression according to the model “[inhibitor] vs. response – Variable slope (four parameters)” as implemented in GraphPad Prism. […] Therefore, the lower FA plateau was constrained to the FA value of probe 1a in the absence of nectin-4 and the competitor, which was recorded in each experiment.

[2] = target: T2, immobilized human nectin-4 (Homo sapiens, UniProt Q96NY8); assay: SPR analysis of binding kinetics; conditions: for kon / koff: ±SEM; for kon: read-out: k on (SPR, *10^6 M^–1 s^–1); for koff: read-out: k off (SPR, *10^–3 s^–1)
T2 construct: close to the value determined for the complete extracellular domain of nectin-4 (0.94 nM); purchased R&D Systems 2659-N4
T2 sequence (Q96NY8 32-349 limits assumed): T1 sequence (Q96NY8 32-349 limits assumed)
Procedure: For this purpose, recombinant human nectin-4 was covalently immobilized on a CM5 sensor chip by EDC/NHS coupling. For analyses, the buffer composition (HBS-P+, pH 7.4) was similar to that of the FA assay; however, DMSO was completely omitted (1% DMSO for the FA assay).
The SPR analyses were carried out on a Biacore T200 (GE Healthcare, Chicago, IL, USA) at 25 °C using CM5 sensor chips (Cytiva) and HBS-P+ as running buffer (Cytiva) at a flow of 30 μL/min unless otherwise specified and a data collection rate of 10 Hz. All flow cells (FC) were normalized, and functionalization was performed using an amine coupling Kit (Cytiva). […] Binding analyses were performed by a single-cycle kinetic on both FC. Two start-up cycles were performed at the beginning of each experimental set, comprising the injection of bicyclic peptide (50 nM) and analysis on both FC, followed by regeneration. Binding analysis for the bicyclic peptides was performed by consecutive injection of five increasing concentrations (120 s contact time for each concentration), followed by 600 s dissociation time and analysis on both FC. The regeneration was performed by sequential injection of 10 mM NaOAc (pH 5.5) for 60 s, washing the needle using HBS-P+, injection of 10 mM NaOAc (pH 5.5) for 60 s, 600 s waiting, four injections of HBS-P+ (60 s), and a final 600 s waiting for stabilization. Blank runs using only buffer (HBS-P+) instead of the sample were carried out to obtain double-referenced chromatograms. Binding analyses were performed unless otherwise stated in a concentration range between 0.16–100 nM and 1.6–1000 nM (5-fold dilution series) and analyzed in triplicate. The data were analyzed using the Biacore Evaluation software 3.2.1. […] Data were fitted to a 1:1 binding model.

[3] = test system: HT-1376-derived tumor xenograft model; assay: Small animal PET/CT imaging; design: species or system mice; conditions: mouse, in vivo
Procedure: All animal experiments were performed following the protocols evaluated and approved by the Landesdirektion Sachsen, Referat 25 – Veterinärwesen, Lebensmittelüberwachung and Pharmazie (09105 Chemnitz, Germany, ethics approval number: 25-5131/562/52). HT-1376- and 5637-derived tumor xenograft models were established in NMRI nude mice (Rj: NMRI-Foxn1nu/nu, Charles River Laboratories, Sulzfeld, Germany) by subcutaneous injection of 5 × 10^6 cells in 100 μL of PBS containing 50% (v/v) Matrigel (Corning Life Sciences, Amsterdam, The Netherlands).
When the tumor volume reached 200 mm^3, PET experiments with radiotracers were performed. Radiolabeling of the ligands was performed as described previously with an apparent molar activity of 25 MBq/nmol. The radioligand stock solution (pH 6.5 – 7.5) was diluted in 0.9% NaCl, and 200 μL containing ∼9 MBq ([…]) was injected per mouse intravenously into a lateral tail vein. For blocking of target-specific radioligand binding, 75 nmol of blocking substance (1d) was administered simultaneously with the radioligand. Coincidences were recorded continuously in a 2 h PET-scan starting with the injection. Additionally, a CT scan was performed for anatomical referencing and attenuation correction. PET/CT imaging, reconstruction, and tissue delineation were carried out as described previously.

Row | SMILES | Hill coefficient n [1] | fold lower binding affinity compared to 1e [1] | kon ([2]; HBS-P+ pH 7.4, 25 °C) [M⁻¹ s⁻¹] | koff ([2]; pH 7.4, HBS-P+ pH 7.4, 25 °C) [s⁻¹] | other results
1 | CCCC[C@@H]1NC(=O)[C@@H]2CSCCC(=O)N3CN(CN(C3)C(=O)CCSC[C@H](NC(C)=O)C(=O)N3CCC[C@H]3C(=O)N[C@@H](Cc3cccc4ccccc34)C(=O)N[C@H](CC(=O)O)C(=O)N2)C(=O)CCSC[C@@H](C(N)=O)NC(=O)[C@H](Cc2c[nH]c3ccccc23)NC(=O)[C@@H]2C[C@@H](O)CN2C(=O)[C@@H]2CCCN2C(=O)[C@H]([C@@H](C)O)NC(=O)[C@H](CO)NC(=O)[C@H](Cc2c[nH]c3ccccc23)NC(=O)[C@H](CC(=O)O)NC(=O)[C@H](CCCCNC(=N)N)NC1=O [3b] (Ac-CP[1Nal][dD]C[Nle][hArg]DWSTP[Hyp]WC-NH2; linker 1-5-15 via TATA) | 1.80 | – | – | – | –
2 | CSCC[C@@H]1NC(=O)[C@@H]2CSCCC(=O)N3CN(CN(C3)C(=O)CCSC[C@H](NC(=O)CN3CCN(CC(=O)O)CCN(CC(=O)O)CCN(CC(=O)O)CC3)C(=O)N3CCC[C@H]3C(=O)N[C@@H](Cc3cccc4ccccc34)C(=O)N[C@H](CC(=O)O)C(=O)N2)C(=O)CCSCC(C(N)=O)NC(=O)[C@H](Cc2c[nH]c3ccccc23)NC(=O)[C@@H]2C[C@@H](O)CN2C(=O)[C@@H]2CCCN2C(=O)[C@H]([C@@H](C)O)NC(=O)[C@H](CO)NC(=O)[C@H](Cc2c[nH]c3ccccc23)NC(=O)[C@H](CC(=O)O)NC(=O)[C@H](CCCCNC(=N)N)NC1=O (stereo partly shown) [1f] | 1.18 | 10 fold | 8.76e+06 | 0.0115 | Kd ([2]; HBS-P+ pH 7.4, 25 °C, single-cycle kinetics, 1:1 model, read-out: K d (SPR)): 1.31 nM
3 | CSCC[C@@H]1NC(=O)[C@@H]2CSCCC(=O)N3CN(CN(C3)C(=O)CCSC[C@H](NC(=O)CC[C@H](C(=O)O)N3CCN(CC(=O)O)CCN(CC(=O)O)CC3)C(=O)N3CCC[C@H]3C(=O)N[C@@H](Cc3cccc4ccccc34)C(=O)N[C@H](CC(=O)O)C(=O)N2)C(=O)CCSC[C@@H](C(N)=O)NC(=O)[C@H](Cc2c[nH]c3ccccc23)NC(=O)[C@@H]2C[C@@H](O)CN2C(=O)[C@@H]2CCCN2C(=O)[C@H]([C@@H](C)O)NC(=O)[C@H](CO)NC(=O)[C@H](Cc2c[nH]c3ccccc23)NC(=O)[C@H](CC(=O)O)NC(=O)[C@H](CCCCNC(=N)N)NC1=O [[^68Ga]Ga-1e] [metal not drawn] | – | – | – | – | Blood half life fast [3]: 1.51 ± 0.31 min; Blood half life slow [3]: 42.24 ± 4.20 min; Percent fast [%] [3]: 80.73 ±3.35%; body retention at 2 h p.i. [3]: 65%; time of highest tumor uptake [3]: 8.5 min
4 | COCC[C@@H]1NC(=O)[C@@H]2CSCCC(=O)N3CN(CN(C3)C(=O)CCSC[C@H](NC(=O)CC[C@H](C(=O)O)N3CCN(CC(=O)O)CCN(CC(=O)O)CC3)C(=O)N3CCC[C@H]3C(=O)N[C@@H](Cc3cccc4ccccc34)C(=O)N[C@H](CC(=O)O)C(=O)N2)C(=O)CCSC[C@@H](C(N)=O)NC(=O)[C@H](Cc2c[nH]c3ccccc23)NC(=O)[C@@H]2C[C@@H](O)CN2C(=O)[C@@H]2CCCN2C(=O)[C@H]([C@@H](C)O)NC(=O)[C@H](CO)NC(=O)[C@H](Cc2c[nH]c3ccccc23)NC(=O)[C@H](CC(=O)O)NC(=O)[C@H](CCCCNC(=N)N)NC1=O [[^68Ga]Ga-4] [metal not drawn] (X1-CP[1Nal][dD]C[hSer](Me)[hArg]DWSTP[Hyp]WC-NH2; linker 1-5-15 via TATA) | – | – | – | – | Percent fast [%] [3]: 78.47 ±3.76%; time of highest tumor uptake [3]: 8.5 min
5 | CCSC[C@@H]1NC(=O)[C@@H]2CSCCC(=O)N3CN(CN(C3)C(=O)CCSC[C@H](NC(=O)CC[C@H](C(=O)O)N3CCN(CC(=O)O)CCN(CC(=O)O)CC3)C(=O)N3CCC[C@H]3C(=O)N[C@@H](Cc3cccc4ccccc34)C(=O)N[C@H](CC(=O)O)C(=O)N2)C(=O)CCSC[C@@H](C(N)=O)NC(=O)[C@H](Cc2c[nH]c3ccccc23)NC(=O)[C@@H]2C[C@@H](O)CN2C(=O)[C@@H]2CCCN2C(=O)[C@H]([C@@H](C)O)NC(=O)[C@H](CO)NC(=O)[C@H](Cc2c[nH]c3ccccc23)NC(=O)[C@H](CC(=O)O)NC(=O)[C@H](CCCCNC(=N)N)NC1=O [compound 7] (X1-CP[1Nal][dD]CC(Et)[hArg]DWSTP[Hyp]WC-NH2; linker 1-5-15 via TATA) | 1.93 | approximately 10 fold | 4.61e+06 | – | koff ([2]; HBS-P+ pH 7.4, 25 °C): 0.0268 s⁻¹
6 | CSCC[C@@H]1NC(=O)[C@@H]2CSCCC(=O)N3CN(CN(C3)C(=O)CCSC[C@H](N)C(=O)N3CCC[C@H]3C(=O)N[C@@H](Cc3cccc4ccccc34)C(=O)N[C@H](CC(=O)O)C(=O)N2)C(=O)CCSC[C@@H](C(N)=O)NC(=O)[C@H](Cc2c[nH]c3ccccc23)NC(=O)[C@@H]2C[C@@H](O)CN2C(=O)[C@@H]2CCCN2C(=O)[C@H]([C@@H](C)O)NC(=O)[C@H](CO)NC(=O)[C@H](Cc2c[nH]c3ccccc23)NC(=O)[C@H](CC(=O)O)NC(=O)[C@H](CCCCNC(=N)N)NC1=O [1c] | 2.12 | – | – | – | –
7 | CCOC[C@@H]1NC(=O)[C@@H]2CSCCC(=O)N3CN(CN(C3)C(=O)CCSC[C@H](NC(=O)CC[C@H](C(=O)O)N3CCN(CC(=O)O)CCN(CC(=O)O)CC3)C(=O)N3CCC[C@H]3C(=O)N[C@@H](Cc3cccc4ccccc34)C(=O)N[C@H](CC(=O)O)C(=O)N2)C(=O)CCSC[C@@H](C(N)=O)NC(=O)[C@H](Cc2c[nH]c3ccccc23)NC(=O)[C@@H]2C[C@@H](O)CN2C(=O)[C@@H]2CCCN2C(=O)[C@H]([C@@H](C)O)NC(=O)[C@H](CO)NC(=O)[C@H](Cc2c[nH]c3ccccc23)NC(=O)[C@H](CC(=O)O)NC(=O)[C@H](CCCCNC(=N)N)NC1=O [compound 6] (X1-CP[1Nal][dD]CS(Et)[hArg]DWSTP[Hyp]WC-NH2; linker 1-5-15 via TATA) | 1.42 | approximately 10 fold | 3.86e+06 | 0.0247 | –
8 | CSCC[C@@H]1NC(=O)[C@@H]2CSCCC(=O)N3CN(CN(C3)C(=O)CCSC[C@H](NC(C)=O)C(=O)N3CCC[C@H]3C(=O)N[C@@H](Cc3cccc4ccccc34)C(=O)N[C@H](CC(=O)O)C(=O)N2)C(=O)CCSC[C@@H](C(N)=O)NC(=O)[C@H](Cc2c[nH]c3ccccc23)NC(=O)[C@@H]2C[C@@H](O)CN2C(=O)[C@@H]2CCCN2C(=O)[C@H]([C@@H](C)O)NC(=O)[C@H](CO)NC(=O)[C@H](Cc2c[nH]c3ccccc23)NC(=O)[C@H](CC(=O)O)NC(=O)[C@H](CCCCNC(=N)N)NC1=O [1d, reference compound] | 2.37 | – | – | – | –
9 | CSCC[C@@H]1NC(=O)[C@@H]2CSCCC(=O)N3CN(CN(C3)C(=O)CCSC[C@H](NC(=O)CC[C@H](C(=O)O)N3CCN(CC(=O)O)CCN(CC(=O)O)CC3)C(=O)N3CCC[C@H]3C(=O)N[C@@H](Cc3cccc4ccccc34)C(=O)N[C@H](CC(=O)O)C(=O)N2)C(=O)CCSC[C@@H](C(N)=O)NC(=O)[C@H](Cc2c[nH]c3ccccc23)NC(=O)[C@@H]2C[C@@H](O)CN2C(=O)[C@@H]2CCCN2C(=O)[C@H]([C@@H](C)O)NC(=O)[C@H](CO)NC(=O)[C@H](Cc2c[nH]c3ccccc23)NC(=O)[C@H](CC(=O)O)NC(=O)[C@H](CCCCNC(=N)N)NC1=O [natGa-1e, metal not drawn] | – | – | 1.1e+06 | 0.0026 | –
